# Data reported in patent publication US20190322676A1, “CERAMIDE GALACTOSYLTRANSFERASE INHIBITORS FOR THE TREATMENT OF DISEASE” (BioMarin Pharmaceutical Inc., priority 2016, published 2019).
# Biological target: T1, human CGT (ceramide galactosyltransferase), CHO/CGT lysate (Homo sapiens, UniProt Q16880)
# T1 construct: Full-length human CGT cDNA was cloned into the BamH1/Xho1 site of pcDNA3.1 (+); expressed in transfected cells; host or cells: Chinese hamster ovary (CHO) cells; lysate prepared with M-PER
# T1 sequence (Q16880 21-541): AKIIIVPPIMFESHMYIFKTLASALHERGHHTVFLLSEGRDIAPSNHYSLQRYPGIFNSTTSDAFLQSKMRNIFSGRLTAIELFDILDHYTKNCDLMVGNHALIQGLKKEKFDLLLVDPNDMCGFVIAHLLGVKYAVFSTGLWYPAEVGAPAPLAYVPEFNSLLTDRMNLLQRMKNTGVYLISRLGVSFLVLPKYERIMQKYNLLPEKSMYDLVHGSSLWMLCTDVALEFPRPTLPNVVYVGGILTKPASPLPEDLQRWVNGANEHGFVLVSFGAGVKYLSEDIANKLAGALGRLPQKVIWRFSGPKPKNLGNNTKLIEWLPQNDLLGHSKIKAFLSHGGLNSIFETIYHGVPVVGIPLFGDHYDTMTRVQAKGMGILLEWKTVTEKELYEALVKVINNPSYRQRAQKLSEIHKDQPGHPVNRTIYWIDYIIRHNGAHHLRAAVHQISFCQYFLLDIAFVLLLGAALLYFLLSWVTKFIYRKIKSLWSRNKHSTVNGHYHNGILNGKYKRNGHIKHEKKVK
# Assay: CGT enzyme assay, RapidFire/MS/MS readout (Table 1 ranges with one asterisk *)
# Assay type: biochemical
# Conditions: RapidFire method (range with one asterisk *)
# How it was run: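 IC50s come from variable-slope dose-response fits of internal-standard-normalized C6-NBD-dihydro-galactosylceramide, measured by RapidFire/MS/MS (ESI negative). Reactions: 1 h, 37 °C, human CGT-expressing CHO lysate (4 μg), 0.001–50 μM compound, 10 μM NBD-dihydro-ceramide, 17.5 μM UDP-galactose, 0.5% DMSO, pH 7.2; 0.01% Tween 80 added for ** values.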
row,Compound,IC50
1,"NC1CCN(C(=O)[C@@H](NS(=O)(=O)c2ccc(OCC3CCCCC3)cc2)C(F)(F)c2ccc(-c3ccc(Cl)s3)cc2)CC1 [Compound 117-1, (R)—N-(3-(4-aminopiperidin-1-yl)-1-(4-(5-chlorothiophen-2-yl)phenyl)-1,1-difluoro-3-oxopropan-2-yl)-4-(cyclohexylmethoxy)benzenesulfonamide]",1000 to 10000 nM
2,"NC1CCN(C(=O)[C@H](NS(=O)(=O)c2ccc(OCC3CCCCC3)cc2)C(F)(F)c2ccc(-c3ccc(Cl)s3)cc2)CC1 [Compound 117-2, (S)—N-(3-(4-aminopiperidin-1-yl)-1-(4-(5-chlorothiophen-2-yl)phenyl)-1,1-difluoro-3-oxopropan-2-yl)-4-(cyclohexylmethoxy) benzenesulfonamide]",10000 to 30000 nM
3,"CCCCOc1cc(C(F)(F)[C@H](NS(=O)(=O)c2ccc3cc(OC4CCCC4)ccc3c2)C(=O)N2C3CCC2CC(N)C3)ccc1Cl (stereo partly drawn) [Compound 118-1, N-((2R)-3-(3-amino-8-azabicyclo[3.2.1]octan-8-yl)-1-(3-butoxy-4-chlorophenyl)-1,1-difluoro-3-oxopropan-2-yl)-6-(cyclopentyloxy)naphthalene-2-sulfonamide]",< 1000 nM
4,"CCCCOc1cc(C(F)(F)[C@@H](NS(=O)(=O)c2ccc3cc(OC4CCCC4)ccc3c2)C(=O)N2C3CCC2CC(N)C3)ccc1Cl (stereo partly drawn) [Compound 118-2, N-((2S)-3-(3-amino-8-azabicyclo[3.2.1]octan-8-yl)-1-(3-butoxy-4-chlorophenyl)-1,1-difluoro-3-oxopropan-2-yl)-6-(cyclopentyloxy) naphthalene-2-sulfonamide]",1000 to 10000 nM
5,"CCCCOc1cc(C(F)(F)[C@H](NS(=O)(=O)c2ccc(OCC3CCCCC3)cc2)C(=O)N2C3CCC2CC(N)C3)ccc1Cl (stereo partly drawn) [Compound 120-1, N-((2R)-3-(3-amino-8-azabicyclo[3.2.1]octan-8-yl)-1-(3-butoxy-4-chlorophenyl)-1,1-difluoro-3-oxopropan-2-yl)-4-(cyclohexylmethoxy) benzenesulfonamide]",< 1000 nM
6,"CCCCOc1cc(C(F)(F)[C@@H](NS(=O)(=O)c2ccc(OCC3CCCCC3)cc2)C(=O)N2C3CCC2CC(N)C3)ccc1Cl (stereo partly drawn) [Compound 120-2, N-((2S)-3-(3-amino-8-azabicyclo[3.2.1]octan-8-yl)-1-(3-butoxy-4-chlorophenyl)-1,1-difluoro-3-oxopropan-2-yl)-4-(cyclohexylmethoxy)benzenesulfonamide]",1000 to 10000 nM
7,"NC1CC2CCC(C1)N2C(=O)[C@@H](NS(=O)(=O)c1ccc2cc(OC3CCCC3)ccc2c1)C(F)(F)c1ccc(Oc2ccc(Cl)cc2)cc1 (stereo partly drawn) [Compound 121-1, N-((2R)-3-(3-amino-8-azabicyclo[3.2.1]octan-8-yl)-1-(4-(4-chlorophenoxy)phenyl)-1,1-difluoro-3-oxopropan-2-yl)-6-(cyclopentyloxy) naphthalene-2-sulfonamide]",< 1000 nM
8,"NC1CC2CCC(C1)N2C(=O)[C@H](NS(=O)(=O)c1ccc2cc(OC3CCCC3)ccc2c1)C(F)(F)c1ccc(Oc2ccc(Cl)cc2)cc1 (stereo partly drawn) [Compound 121-2, N-((2S)-3-(3-amino-8-azabicyclo[3.2.1]octan-8-yl)-1-(4-(4-chlorophenoxy)phenyl)-1,1-difluoro-3-oxopropan-2-yl)-6-(cyclopentyloxy)naphthalene-2-sulfonamide]",1000 to 10000 nM
9,"N[C@@H]1CCCN(C(=O)[C@@H](NS(=O)(=O)c2ccc3cc(OC4CCCC4)ccc3c2)C(F)(F)c2ccc(Br)cc2)C1 [Compound 122-1, N—((R)-3-((R)-3-aminopiperidin-1-yl)-1-(4-bromophenyl)-1,1-difluoro-3-oxopropan-2-yl)-6-(cyclopentyloxy)naphthalene-2-sulfonamide]",1000 to 10000 nM
10,"N[C@@H]1CCCN(C(=O)[C@H](NS(=O)(=O)c2ccc3cc(OC4CCCC4)ccc3c2)C(F)(F)c2ccc(Br)cc2)C1 [Compound 122-2, N—((S)-3-((R)-3-aminopiperidin-1-yl)-1-(4-bromophenyl)-1,1-difluoro-3-oxopropan-2-yl)-6-(cyclopentyloxy)naphthalene-2-sulfonamide]",30000 to 100000 nM
11,"COc1cc(C(F)(F)[C@H](NS(=O)(=O)c2ccc3cc(OC4CCCC4)ccc3c2)C(=O)N2CCC(N)CC2)ccc1Cl [Compound 123-1, (R)—N-(3-(4-aminopiperidin-1-yl)-1-(4-chloro-3-methoxyphenyl)-1,1-difluoro-3-oxopropan-2-yl)-6-(cyclopentyloxy)naphthalene-2-sulfonamide]",< 1000 nM
12,"COc1cc(C(F)(F)[C@@H](NS(=O)(=O)c2ccc3cc(OC4CCCC4)ccc3c2)C(=O)N2CCC(N)CC2)ccc1Cl [Compound 123-2, (S)—N-(3-(4-aminopiperidin-1-yl)-1-(4-chloro-3-methoxyphenyl)-1,1-difluoro-3-oxopropan-2-yl)-6-(cyclopentyloxy)naphthalene-2-sulfonamide]",1000 to 10000 nM
13,"COc1cc(C(F)(F)[C@H](NS(=O)(=O)c2ccc3cc(OC4CCCC4)ccc3c2)C(=O)N2C3CCC2CC(N)C3)ccc1Cl (stereo partly drawn) [Compound 124-1, N-((2R)-3-(3-amino-8-azabicyclo[3.2.1]octan-8-yl)-1-(4-chloro-3-methoxyphenyl)-1,1-difluoro-3-oxopropan-2-yl)-6-(cyclopentyloxy)naphthalene-2-sulfonamide]",< 1000 nM
14,"COc1cc(C(F)(F)[C@H](NS(=O)(=O)c2ccc(OCC3CCCCC3)cc2)C(=O)N2C3CCC2CC(N)C3)ccc1Cl (stereo partly drawn) [Compound 125-1, N-((2R)-3-(3-amino-8-azabicyclo[3.2.1]octan-8-yl)-1-(4-chloro-3-methoxyphenyl)-1,1-difluoro-3-oxopropan-2-yl)-4-(cyclohexylmethoxy) benzenesulfonamide]",< 1000 nM
15,"COc1cc(C(F)(F)[C@@H](NS(=O)(=O)c2ccc(OCC3CCCCC3)cc2)C(=O)N2C3CCC2CC(N)C3)ccc1Cl (stereo partly drawn) [Compound 125-2, N-((2S)-3-(3-amino-8-azabicyclo[3.2.1]octan-8-yl)-1-(4-chloro-3-methoxyphenyl)-1,1-difluoro-3-oxopropan-2-yl)-4-(cyclohexylmethoxy)benzenesulfonamide]",10000 to 30000 nM
16,"CCCCOc1cc(C(F)(F)[C@H](NS(=O)(=O)c2ccc3cc(OC4CCCC4)ccc3c2)C(=O)N2CCC(N)CC2)ccc1Cl [Compound 126-1, (R)—N-(3-(4-aminopiperidin-1-yl)-1-(3-butoxy-4-chlorophenyl)-1,1-difluoro-3-oxopropan-2-yl)-6-(cyclopentyloxy)naphthalene-2-sulfonamide]",< 1000 nM
17,"CCCCOc1cc(C(F)(F)[C@@H](NS(=O)(=O)c2ccc3cc(OC4CCCC4)ccc3c2)C(=O)N2CCC(N)CC2)ccc1Cl [Compound 126-2, (S)—N-(3-(4-aminopiperidin-1-yl)-1-(3-butoxy-4-chlorophenyl)-1,1-difluoro-3-oxopropan-2-yl)-6-(cyclopentyloxy)naphthalene-2-sulfonamide]",1000 to 10000 nM
18,"CCCCOc1cc(C(F)(F)[C@H](NS(=O)(=O)c2ccc(OCC3CCCCC3)cc2)C(=O)N2CCC(N)CC2)ccc1Cl [Compound 127-1, (R)—N-(3-(4-aminopiperidin-1-yl)-1-(3-butoxy-4-chlorophenyl)-1,1-difluoro-3-oxopropan-2-yl)-4-(cyclohexylmethoxy)benzenesulfonamide]",< 1000 nM
19,"CCCCOc1cc(C(F)(F)[C@@H](NS(=O)(=O)c2ccc(OCC3CCCCC3)cc2)C(=O)N2CCC(N)CC2)ccc1Cl [Compound 127-2, (S)—N-(3-(4-aminopiperidin-1-yl)-1-(3-butoxy-4-chlorophenyl)-1,1-difluoro-3-oxopropan-2-yl)-4-(cyclohexylmethoxy)benzenesulfonamide]",1000 to 10000 nM
20,"COc1cc(C(F)(F)[C@H](NS(=O)(=O)c2ccc(OCC3CCCCC3)cc2)C(=O)N2C3CCC2CC(N)C3)ccc1Br (stereo partly drawn) [Compound 128-1, N-((2R)-3-(3-amino-8-azabicyclo[3.2.1]octan-8-yl)-1-(4-bromo-3-methoxyphenyl)-1,1-difluoro-3-oxopropan-2-yl)-4-(cyclohexylmethoxy) benzenesulfonamide]",< 1000 nM
21,"COc1cc(C(F)(F)[C@@H](NS(=O)(=O)c2ccc(OCC3CCCCC3)cc2)C(=O)N2C3CCC2CC(N)C3)ccc1Br (stereo partly drawn) [Compound 128-2, N-((2S)-3-(3-amino-8-azabicyclo[3.2.1]octan-8-yl)-1-(4-bromo-3-methoxyphenyl)-1,1-difluoro-3-oxopropan-2-yl)-4-(cyclohexylmethoxy)benzenesulfonamide]",1000 to 10000 nM
22,"COc1cc(C(F)(F)[C@H](NS(=O)(=O)c2ccc(OCC3CCCCC3)cc2)C(=O)N2CCC(N)CC2)ccc1Cl [Compound 129-1, (R)—N-(3-(4-aminopiperidin-1-yl)-1-(4-chloro-3-methoxyphenyl)-1,1-difluoro-3-oxopropan-2-yl)-4-(cyclohexylmethoxy)benzenesulfonamide]",1000 to 10000 nM
23,"COc1cc(C(F)(F)[C@@H](NS(=O)(=O)c2ccc(OCC3CCCCC3)cc2)C(=O)N2CCC(N)CC2)ccc1Cl [Compound 129-2, (S)—N-(3-(4-aminopiperidin-1-yl)-1-(4-chloro-3-methoxyphenyl)-1,1-difluoro-3-oxopropan-2-yl)-4-(cyclohexylmethoxy)benzenesulfonamide]",10000 to 30000 nM
